Key:
HeLa cells = test: Cytotoxicity assay; assay type: cell-based, human; details: 10, 1, 0.1 and 0.01 μM; 24 or 48 h; triplicate
CREBBP = assay type: binding, human; details: from ΔTm^obs, compound 100 μM

| Structure (SMILES) | cytotoxicity in HeLa cells (MTT) (HeLa cells) | selectivity for CREBBP over the BET bromodomains (CREBBP) |
| --- | --- | --- |
| CCOc1cc(-c2c(C)noc2C)cc(C(C)O)c1 (racemic) [Compound 4d, (RS)-1-(3-(3,5-Dimethylisoxazol-4-yl)-5-ethoxyphenyl)ethanol] | did not show any cytotoxicity |  |
| Cc1noc(C)c1-c1ccc2c(c1)CN(C)C(=O)N2 [Compound 1, 6-(3,5-dimethylisoxazol-4-yl)-3-methyl-3,4-dihydroquinazolin-2(1H)-one] | significant cytotoxicity |  |
| CCOc1cc(C(=O)O)cc(-c2c(C)noc2C)c1 [Compound 4b, 3-(3,5-Dimethylisoxazol-4-yl)-5-ethoxybenzoic acid] | did not show any cytotoxicity | modest |
